Assay results as given in patent publication US9334267B2, “RAF inhibitor compounds” (Deciphera Pharmaceuticals, LLC, priority 2012, dated 2016).

What was measured:
A375res cells = experiment: Proliferation assay in vemurafenib-resistant melanoma cells A375res; details: Homo sapiens, 72 h, read-out: absolute IC50 values
A375 cells = experiment: A375 cell proliferation assay (CellTiter-Blue/resazurin); type: cell-based; details: Homo sapiens, A-375, V600E mutation, read-out: Cell Proliferation Inhibition IC50, nM A375
Experimental: (§1) A375 cells (catalog #CRL-1619) are obtained from the American Type Culture Collection (ATCC, Manassas, Va.). Briefly, cells are grown in DMEM High Glucose supplemented with 10% characterized fetal bovine serum (Invitrogen, Carlsbad, Calif.) and 1% Penicillin/Streptomycin/L-Glutamine at 37 degrees Celsius, 5% CO2, and 95% humidity. Cells are allowed to expand until reaching 70-95% confluency at which point they are subcultured or harvested for assay use. A serial dilution of test compound is dispensed into a 384-well black clear bottom plate in triplicate. Six hundred twenty-five cells are added per well in 50 μL complete growth medium in the 384-well plate. Plates are incubated for 67 hours at 37 degrees Celsius, 5% CO2, and 95% humidity. At the end of the incubation period, 10 μL of a 440 μM solution of resazurin (Sigma, St. Louis, Mo.) in PBS is added to each well of the plate and plates are incubated for an additional 5 hours at 37 degrees Celsius, 5% CO2, and 95% humidity. Plates are read on a Synergy2 reader (Biotek, Winooski, Vt.) using an excitation of 540 nm and an emission of 600 nm. Data is analyzed using Prism software (Graphpad, San Diego, Calif.) to calculate IC50 values.
(§2) The A375, HT-29, and Colo-205 cells (ATCC) harbor a V600E mutation.

human wild type C-Raf = target: T1, human wild type C-Raf (Homo sapiens, UniProt P04049); experiment: Enzymatic assay of C-Raf kinase activity (Raf/MEK1 ATPase, coupled PK/LDH, A340); type: biochemical; details: read-out: Enzyme IC50, nM C-Raf
T1 construct: made in house
T1 sequence (P04049 whole entry): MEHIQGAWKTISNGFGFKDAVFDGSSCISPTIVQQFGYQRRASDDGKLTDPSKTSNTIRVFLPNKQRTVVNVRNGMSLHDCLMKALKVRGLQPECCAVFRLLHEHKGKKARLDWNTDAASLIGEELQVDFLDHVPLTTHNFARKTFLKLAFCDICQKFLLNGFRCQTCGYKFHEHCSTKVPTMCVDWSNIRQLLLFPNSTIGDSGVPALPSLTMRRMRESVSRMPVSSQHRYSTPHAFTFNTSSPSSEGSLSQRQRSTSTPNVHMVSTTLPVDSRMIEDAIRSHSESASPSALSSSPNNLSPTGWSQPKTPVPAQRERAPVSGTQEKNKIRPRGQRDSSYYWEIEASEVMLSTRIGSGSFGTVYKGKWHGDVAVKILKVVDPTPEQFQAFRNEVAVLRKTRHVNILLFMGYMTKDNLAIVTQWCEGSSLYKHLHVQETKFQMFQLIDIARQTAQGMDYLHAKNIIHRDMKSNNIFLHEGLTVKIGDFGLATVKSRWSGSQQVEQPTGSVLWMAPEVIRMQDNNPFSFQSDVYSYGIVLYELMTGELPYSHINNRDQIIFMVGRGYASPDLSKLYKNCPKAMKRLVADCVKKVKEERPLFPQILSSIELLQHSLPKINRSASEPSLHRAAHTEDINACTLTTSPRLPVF
Experimental: Test compounds are evaluated for their inhibitory activities against one or more of human wild type B-Raf, human wild type C-Raf, human B-Raf V600E, human B-Raf V600E+T529I or human B-Raf V600E+G468A. T529I is a threonine to isoleucine B-Raf gatekeeper mutation and G468A is a B-Raf secondary mutation at G1403C in exon 11. The enzymatic assays of B-Raf, C-Raf and B-Raf mutations evaluate a property of Raf and MEK1 complex, which in the presence of ATP, catalyzes an enhanced ATP hydrolysis (Rominger, et al, Arch. Biochem. Biophys. 2007, 464: 130-137; US Patent Publication No. 2006/0211073). The ADP formed is monitored by the well-known coupled PK/LDH (pyruvate kinase/lactate dehydrogenase) system in the form of NADH oxidation, which can be monitored and detected spectrophotometrically by absorbance at 340 nm (A340; for principal of the method see Schindler et al, Science, 2000, 289: 1938-1942). Raf activated MEK1 ATPase activity is a property shared by all forms of Raf proteins.
Test compounds are evaluated for their inhibitory activities against one or more of wild type B-Raf, wild type C-Raf, B-Raf V600E, B-Raf V600E+T529I and B-Raf V600E+G468A. T529I is a B-Raf gatekeeper mutation and G468A is a B-Raf secondary mutation. The enzymatic assays of B-Raf, C-Raf and B-Raf mutations evaluate a property of Raf and MEK1 complex, which in the presence of ATP, catalyzes an enhanced ATP hydrolysis (Rominger, et al, Arch. Biochem. Biophys. 2007, 464: 130-137). The ADP formed is monitored by the well-known coupled PK/LDH (pyruvate kinase/lactate dehydrogenase) system in the form of NADH oxidation, which can be monitored and detected by absorbance at 340 nm (A340; for principal of the method see Schindler et al, Science, 2000, 289: 1938-1942). Raf activated MEK1 ATPase activity is a property shared by all forms of Raf proteins. In the B-Raf wild type enzymatic assay, the reaction mixture contains 1.2 nM B-Raf, 30 nM MEK1, 1000 uM ATP, 3.5 units (per 100 ul) of PK, 5 units (per 100 ul) of LDH, 1 mM phosphoenol pyruvate (PEP), and 280 uM of NADH. In the C-Raf assay, the reaction mixture contains 0.6 nM C-Raf, 26 nM MEK1, 2000 uM ATP, and the same amount of PK, LDH, PEP and NADH as above. In the B-Raf V600E assay, the reaction mixture contains […] B-Raf V600E, 26 nM MEK1, 200 uM ATP and the same amount of PK, LDH, PEP and NADH as above. In the B-RafV600E+T529I assay, the reaction mixture contains 6.2 nM B-Raf V600E+T529I, 30 nM MEK1, 200 uM ATP and the same amount of PK, LDH, PEP and NADH as above. In the B-Raf V600E+G468A assay, the reaction mixture contains 3.5 nM B-Raf, 30 nM MEK1, 200 uM ATP and the same amount of PK, LDH, PEP and NADH as above. All assays are started by mixing the above mixture with test compound and monitoring at A340 continuously for approximately 5 hr. […] In the aforementioned assays, the enzyme constructs can be screened prior to or after cleavage of the N-terminal purification tag.

HCT-116 cells = experiment: HCT-116 cell proliferation assay (resazurin); type: cell-based; details: Homo sapiens, K-Ras mutation B-Raf wild type, read-out: Cell Proliferation Inhibition IC50, nM HCT-116
Colo205 cells = experiment: Colo-205 cell proliferation assay (resazurin); type: cell-based; details: Homo sapiens; Colo-205 cells, V600E mutation; read-out: Cell Proliferation Inhibition IC50, nM Colo-205
Experimental: as §1, with “Colo205 cells” for “A375 cells”, “(catalog #HB-8307)” for “(catalog #CRL-1619)”, “in RPMI 1640” for “in DMEM High Glucose”, “Carlsbad, Calif.), 1 mM sodium pyruvate,” for “Carlsbad, Calif.)”, “reaching 30-60%” for “reaching 70-95%”, “triplicate. One thousand two-hundred fifty” for “triplicate. Six hundred twenty-five”
as §2

| IC50 (A375res cells) [nM] | IC50 (A375 cells) [nM] | IC50 (human wild type C-Raf) [nM] | IC50 (HCT-116 cells) [nM] | IC50 (Colo205 cells) [nM] | Compound |
| --- | --- | --- | --- | --- | --- |
| 15 to 1100 | < 100 | < 150 | 100 to 1000 | < 100 | Cc1cc(F)c(NC(=O)NCCC(C)(C)C)cc1-c1cc2cnc(NCCO)nc2nc1C [Example 16, 1-(3,3-Dimethylbutyl)-3-[2-fluoro-5-[2-(2-hydroxyethylamino)-7-methyl-pyrido[2,3-d]pyrimidin-6-yl]-4-methyl-phenyl]urea] |
| 15 to 1100 | < 100 | < 150 | 100 to 1000 | < 100 | CNc1ncc2cc(-c3cc(NC(=O)NCCC4(C(F)(F)F)CC4)c(F)cc3C)c(C)nc2n1 [Example 30, 1-(2-Fluoro-4-methyl-5-(7-methyl-2-(methylamino)pyrido[2,3-d]pyrimidin-6-yl)phenyl)-3-(2-(1-(trifluoromethyl)cyclopropyl)ethyl)urea] |
| 15 to 1100 | < 100 | < 150 | 100 to 1000 | < 100 | CNc1ncc2cc(-c3cc(NC(=O)NCCC(C)(C)C(F)(F)F)c(F)cc3C)c(C)nc2n1 [Example 27, 1-(2-Fluoro-4-methyl-5-(7-methyl-2-(methylamino)pyrido[2,3-d]pyrimidin-6-yl)phenyl)-3-(4,4,4-trifluoro-3,3-dimethylbutyl)urea] |

The next lines start with the compound.

| Compound | IC50 (A375res cells) [nM] | IC50 (A375 cells) [nM] | IC50 (human wild type C-Raf) [nM] | IC50 (HCT-116 cells) [nM] | IC50 (Colo205 cells) [nM] |
| --- | --- | --- | --- | --- | --- |
| Cc1cc(F)c(NC(=O)NCCC(C)(C)C)cc1-c1cc2cnc(N)nc2nc1C [Example 20, 1-(5-(2-Amino-7-methylpyrido[2,3-d]pyrimidin-6-yl)-2-fluoro-4-methylphenyl)-3-(3,3-dimethylbutyl)urea] | 15 to 1100 | < 100 | < 150 | 100 to 1000 | < 100 |
| CNc1ncc2cc(-c3cc(NC(=O)NCCC(C)(C)C)c(F)cc3C)cnc2n1 [Example 35, 1-(3,3-Dimethylbutyl)-3-[2-fluoro-4-methyl-5-(2-methylaminopyrido[2,3-d]pyrimidin-6-yl)phenyl]urea] | 15 to 1100 | < 100 | < 150 | 100 to 1000 | < 100 |
| Cc1cc(F)c(NC(=O)NCCC(C)(C)C)cc1-c1cc2cnc(NCCN(C)C)nc2nc1C [Example 17, 1-[5-[2-(2-Dimethylaminoethylamino)-7-methyl-pyrido[2,3-d]pyrimidin-6-yl]-2-fluoro-4-methyl-phenyl]-3-(3,3-dimethylbutyl)urea] | 15 to 1100 | < 100 | < 150 | 100 to 1000 | < 100 |
